The results in this text go back to article PMC11066040, “Nuclear phosphoinositide signaling promotes YAP/TAZ-TEAD transcriptional activity in breast cancer” (The EMBO Journal, 2024).

Usually Kd stands for a measure of binding affinity in units of concentration. A low value points to higher affinity.

Each structure is given as a SMILES string.

Assay [1] has as its target T1, GST-YAP (Homo sapiens, UniProt P46937).
T1 construct: gene YAP1
As to the kind of experiment: microscale thermophoresis. The format is binding. (Microscale thermophoresis detects binding through changes in fluorescence in a small temperature gradient.)

Assay [2] deals with T1, GST-YAP. As to the kind of experiment: microscale thermophoresis. Conditions: pH 8.0, 50 mM NaCl, 80 mM KCl, 0.05% Tween-20; fluorescently labeled GST-YAP. Format: binding.

T1 sequence (P46937 whole entry): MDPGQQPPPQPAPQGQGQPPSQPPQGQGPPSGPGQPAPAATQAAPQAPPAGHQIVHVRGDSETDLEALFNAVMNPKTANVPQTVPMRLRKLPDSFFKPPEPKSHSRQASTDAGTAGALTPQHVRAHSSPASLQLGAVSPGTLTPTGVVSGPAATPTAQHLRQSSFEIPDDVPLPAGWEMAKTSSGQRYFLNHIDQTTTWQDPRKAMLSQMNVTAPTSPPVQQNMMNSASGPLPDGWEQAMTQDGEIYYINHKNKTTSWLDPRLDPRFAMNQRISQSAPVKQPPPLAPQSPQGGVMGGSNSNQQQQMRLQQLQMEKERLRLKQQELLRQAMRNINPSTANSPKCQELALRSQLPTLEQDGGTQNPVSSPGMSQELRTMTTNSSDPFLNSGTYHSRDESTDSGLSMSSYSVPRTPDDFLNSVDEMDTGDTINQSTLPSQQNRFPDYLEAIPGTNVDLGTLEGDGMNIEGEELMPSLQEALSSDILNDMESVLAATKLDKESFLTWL

Regarding `CCCCC/C=C\C/C=C\C/C=C\C/C=C\CCCC(=O)O[C@H](COC(=O)CCCCCCCCCCCCCCCCC)COP(=O)(O)O[C@@H]1[C@H](O)[C@H](O)[C@@H](OP(=O)(O)O)[C@H](OP(=O)(O)O)[C@H]1O` [PI(4,5)P2], the Kd in assay [1] came out at 166 ± 13.5 nM.

Turning to `CCCCC/C=C\C/C=C\C/C=C\C/C=C\CCCC(=O)O[C@H](COC(=O)CCCCCCCCCCCCCCCCC)COP(=O)(O)O[C@H]1[C@H](O)[C@@H](OP(=O)(O)O)[C@H](OP(=O)(O)O)[C@@H](OP(=O)(O)O)[C@H]1O` [PI(3,4,5)P3], binding in assay [1] was characterised by a dissociation constant (Kd) of 8.13 ± 2.63 nM. Against the preceding compound, the Kd is about 20-fold lower.

On to `CCCCC/C=C\C/C=C\C/C=C\C/C=C\CCCC(=O)O[C@H](COC(=O)CCCCCCCCCCCCCCCCC)COP(=O)(O)O[C@@H]1[C@H](O)[C@H](O)[C@@H](O)[C@H](O)[C@H]1O` [PI], for which the binding result in assay [2] was “No significant binding of GST-YAP with PI was detected”.
